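Test compounds were applied to cells in 96-well plates for 48 hours at 5 doses. TGI is the concentration that stops growth completely.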
Columns and labels:
Assay in all cases: inhibition of tumour cell growth, NCI panel, 48 h
[1] = tested on: SK-MEL-2 melanoma
[2] = tested on: NCI-H522 lung
[3] = tested on: TK-10 renal
[4] = tested on: K-562 leukemia
[5] = tested on: IGROV1 ovarian
[6] = tested on: CCRF-CEM leukemia
[7] = tested on: SNB-75 CNS
[8] = tested on: HCC-2998 colon
[9] = tested on: RXF 393 renal
[10] = tested on: NCI/ADR-RES ovarian
[11] = tested on: HS 578T breast
[12] = tested on: BT-549 breast

SMILES | TGI [1] [µM] | TGI [2] [µM] | TGI [3] [µM] | TGI [4] [µM] | TGI [5] [µM] | TGI [6] [µM] | TGI [7] [µM] | TGI [8] [µM] | TGI [9] [µM] | TGI [10] [µM] | TGI [11] [µM] | TGI [12] [µM]
N.N.N.O=[N+]([O-])[O-].O=[N+]([O-])[O-].O=[N+]([O-])[O-].O=[N+]([O-])[O-].[Co+3] | > 100 | > 100 | > 100 | > 100 | > 100 | > 100 | > 100 |  |  |  |  | 
CC1(C)CC(/C=C2/OC(=O)c3ccccc32)=C(C#N)C(=O)O1 | > 100 | > 100 |  | > 100 | > 100 | > 100 | > 100 | > 100 |  |  |  | 
CC1(Cl)C(=O)NC(=O)N(C2CC(N=[N+]=[N-])C(CO)O2)C1N=[N+]=[N-] (stereo not drawn) | > 100 | > 100 | > 100 | > 100 | > 100 | > 100 | > 100 | > 100 | > 100 |  |  | 
c1ccc(C2C3=C(Nc4ncnn42)c2ccccc2C3)cc1 (stereo not drawn) | > 100 | 26.5 | > 100 | > 100 | > 100 | > 100 | > 100 | > 100 | > 100 |  |  | 
N=C1CSC2=NC3=C(CCC/C3=C\c3ccccc3)C(c3ccccc3)N12 (stereo not drawn) | 5.56 | 9.71 | 18.1 | 18.4 | 20.1 | 8.61 | 23.7 | 10.6 | 17.4 |  |  | 
Cn1cc2ccccc2c1-c1nc(N)nc(F)n1 | > 100 | > 100 | > 100 | > 100 | > 100 | > 100 | > 100 | > 100 | > 100 |  |  | 
CC(CN1c2ccccc2Sc2ccccc21)N(C)C (stereo not drawn) | 34.7 | 36.3 |  | 36.1 | 34.7 | 40.1 | 15.2 | 37.5 | 37.5 | 30.5 |  | 
COC(=O)C(CCC#N)(CCC#N)C(=O)OC |  | > 100 |  | > 100 | > 100 | > 100 |  | > 100 |  |  |  | 
COc1cc2c(cc1OC)C1=Cc3cc(OC)c(OC)cc3C(C)N1C=C2 (stereo not drawn) |  |  | > 100 | > 100 | > 100 | > 100 | > 100 | > 100 | > 100 | > 100 | > 100 | > 100
CC(=O)OCC(C)C1=C(O)C(=O)C2(C)C/C=C(/C)CC/C=C(\C)CCC(O)C(C)CCC12 (stereo not drawn) | 39.3 | 32.6 | 35.9 | 53.4 | 33 | 70.9 | 30.5 |  | 27.4 | 44 | 52.9 | 
COC(=O)CC(C(C(=O)OC)C(=O)OC)N1C(=O)OCC1c1ccccc1 (stereo not drawn) | > 100 | > 100 | > 100 | > 100 | > 100 | > 100 | > 100 | > 100 | > 100 |  |  | 
CCCCN1C(=O)CC2[C@@H]3CCc4cc(OC(C)=O)ccc4C3CC[C@]2(C)C1=O (stereo partly drawn) | > 10 |  | > 10 | > 10 | > 10 | > 10 |  | > 10 | > 10 | > 10 | > 10 | > 10

Source: PubChem BioAssay (NCI)
